Measured values reported in patent US9125937B2, “Labelled analogues of halobenzamides as multimodal radiopharmaceuticals and their precursors” (INSTITUT NATIONAL DE LA SANTE ET DE LA RECHERCHE MEDICALE …, priority 2008, dated 2015).
Where “and” joins values, the source holds several entries; their conditions need not be identical. Equal values may be shown once. Where a name gives a salt, the structure may show the parent alone. Each block holds one compound with its values, some of them ahead of it.

Columns and labels:
[1] = tested on: B16F10 and B16F0 murine melanoma tumour grafts; assay: Ex vivo biodistribution by organ counting after PET imaging; format: in vivo; details: two-and-a-half and four-and-a-half hours after i.v. injection, FIG. 4
Protocol: Imaging Protocol. Three sets of mice were prepared for PET imaging as described in FIG. 3 in annex: • (Set 1) Four C57BL6 mice bearing both B16F10 and B16F0 murine melanoma tumour grafts on the flanks were anaesthetized with isoflurane and injected with [^18F]10 (200 μCi). Two were imaged immediately during the first hour after injection, allowed to recover from anaesthesia, anaesthetized again at two hours post injection and imaged between two and two-and-a-half hour after injection, allowed to recover from anaesthesia, anaesthetized again at four hours post injection and imaged between four and four-and-a-half hour after injection, then sacrificed and their organs weighed and counted. […]
Biodistribution. [^18F]10 biodistribution was analysed for the mice of set 1 (n=4) four-and-a-half hours after injection, and for the mice of set 2 (n=2) two-and-a-half hours after injection. Animals were sacrificed by lethal injection of pentobarbital and organs were collected, weighed and radioactivity of each sample was measured on a Cobra gamma counter (Packard). […]

[2] = tested on: B16F10 and B16F0 murine melanoma tumour grafts; assay: PET imaging of melanoma-bearing mice; format: in vivo, C57BL6 mice
Protocol: Imaging Protocol. Three sets of mice were prepared for PET imaging as described in FIG. 3 in annex: • (Set 1) Four C57BL6 mice bearing both B16F10 and B16F0 murine melanoma tumour grafts on the flanks were anaesthetized with isoflurane and injected with [^18F]10 (200 μCi). Two were imaged immediately during the first hour after injection, allowed to recover from anaesthesia, anaesthetized again at two hours post injection and imaged between two and two-and-a-half hour after injection, allowed to recover from anaesthesia, anaesthetized again at four hours post injection and imaged between four and four-and-a-half hour after injection, then sacrificed and their organs weighed and counted. Two other mice were allowed to recover from anaesthesia, anaesthetized at two hours post injection and imaged between two and two-and-a-half hour after injection, allowed to recover from anaesthesia, anaesthetized again at four hours post injection and imaged between four and four-and-a-half hour after injection, then sacrificed and their organs weighed and counted. • (Set 2) Two C57BL6 mice bearing both B16F10 and B16F0 murine melanoma tumour grafts on the shoulders (so as to avoid contaminating signals originating from with digestive and urinary tracts) were injected with [^18F]10 (200 μCi), imaged under isoflurane anesthesia continuously during two hours, then sacrificed and their organs weighed and counted. • (Set 3) One C57BL6 mouse bearing both B16F10 and B16F0 murine melanoma tumour grafts on the shoulders (so as to avoid contaminating signals originating from with digestive and urinary tracts) was injected with [^18F]10 (600 μCi), allowed to recover, anaesthetized with isoflurane six hours post injection, imaged during 30 minutes between six and six-and-a-half hours post injection.
PET Imaging. […] All values of radioactivity concentrations were normalized for radioactivity decay, as well as by the injected dose of radiotracer, and expressed as percentage of the injected dose per volume of tissue (% ID/cc). […]

B16F0 melanoma tumour [3] = assay: Tumour uptake by whole body sectioning autoradiography; format: in vivo, mice
Text: (ii) A comparison camera quantified in vivo values with values determined using the whole body sectioning conventional autoradiographic method has been done for several compounds. The correlation coefficient obtained between the two methods was 0.92.
(§1) (iii) For the compound N-(2-diethylaminoethyl)-6-iodoquinoxaline-2-carboxamide, which is described in PCT application n°PCT/IB2007/052992 as compound n°45 in table I of said patent application (hereinafter called “ICF01012”), the tumour uptake has been quantified by 3 methods: camera imaging, autoradiography and counting of tumour tissue after dissection (gamma counter), values are summarized below.

B16 F0 murine melanoma = assay: Biodistribution study by planar scintigraphic imaging (gamma camera), tumour uptake quantification; format: in vivo, C57BL6 male mice; details: i.v.
Protocol: (§2) Tumour Implantation. For transplantation, cells grown in monolayer culture to confluence were trypsinized and washed with phosphate buffer saline (PBS). They were resuspended in PBS and each mouse received 0.1 mL subcutaneously (3×10^5 cells) on the left flank in order to allow a tumour growth on the body side. Ten days later, the tumours became palpable with a percentage of tumour take of 98-100%.
The in vivo biodistribution and kinetic profile of each radiolabelled (iodine-125) compound have been studied in C57BL6 male mice bearing the B16 F0 murine melanoma by repeated planar scintigraphic imaging which allows the tumour uptake follow-up in the same animal.
Gamma Camera. In vivo radionuclide imaging was performed using a γ IMAGER (Biospace Mesures, Paris, France) especially dedicated for small animal, a scintigraphic camera with a continuous 4 mm thick×120 mm diameter CsI(Na) crystal, a position-sensitive Hamamatsu R3292 photomultiplier and a 10 cm field of view.
Imaging Protocol. On day 14 after tumour implantation (tumour weight 0.25±0.10 g) each [^125I]-radioiodinated compound was administered intravenously via a tail vein (0.1 μmol, range 3.7 to 7 MBq/animal) in three mice for each compound. At different times after administration (1, 3, 6, 24, 72 hours, 5, 7, 10 and 15 days), mice were anesthetized with 0.2 mL, for a 20 g mouse, of a ketamine-xylazine mixture in saline (1-0.25 mL for 5 mL) by i. p. administration, and repeated planar scintigraphic whole body imaging (mouse laying in anterior position on the camera field) were performed by an acquisition time of 10 min. For this study, the camera was equipped with a 1.8/0.2/20 collimator (hole diameter/septum thickness/height in mm).
Tumoural Radioactivity Quantification Approach. The injected activity to each mouse was determined from scintigraphic imaging of the syringe before and after the injection using the γ-IMAGER.
Regions of interest (ROIs) were delineated over the whole body image: whole body uptake area (or the various fixing areas, eyes, thyroid and abdomen) and one for the tumour uptake area. In the various ROIs, the activity (cpm) was quantified using the Biospace measures γ VISION+software. These values were normalized to the injected dose. For the tumour, the activity was also normalized to the tumour weight. Firstly, the volume was calculated from the two dimensions caliper measurement (Bissery, M. C.; Guenard, D.; Gueritte-Voegelin, F.; Lavelle, F. Experimental antitumour activity of taxotere (RP 56976, NSC 628503) a taxol analogue. Cancer res. 1991, 51, 4845-4852). Secondly, the weight was determined from the volume value corrected by a factor determined from a large panel of experiments (Weight g=volume mm^3×0.6). The data were expressed as % ID/g of B 16F0 melanoma tumour.

B16F0 melanoma tumour [4] = assay: Tumour uptake by counting of tumour tissue after dissection (gamma counter); format: in vivo, mice
Text: as §1

[5] = tested on: subcutaneous B16F0 melanoma; assay: Radionuclide therapy experiment (anti-tumoural efficacy); format: in vivo, C57BL/6J mice
Protocol: Animals. All experiments were carried out in accordance with the institution recommendations based on the guide for the care and use of laboratory animals. For therapy experiment, we used 6- to 8-week-old C57BL/6J male mice (Charles River Laboratories).
as §2
[^131I]11 treatment was administered intravenously at days 6 and 10 after tumour implantation (2×18.5 MBq) in groups of 10 mice. In the same conditions untreated-animals were studied. From three days before the treatment and along the experiment, lugol's iodine solution was added in the two mice groups alimentation to block iodine thyroid uptake. To monitor tumoral growth, tumor volume in mm^3 was calculated twice a week from the measurement of two perpendicular diameters using a caliper according to the formula L×S^2/2 where L and S are the largest and smallest diameters in mm respectively. At day 19 of the experiment, mice were sacrificed. Tumours were removed, dissected and weighted.
Statistical Analyses. In experiment data are given as mean+SEM and were analyzed by the Student or ANOVA tests.
Anti-tumoural Efficacy of Targeted Radionuclide Therapy. To assess the therapeutic efficacy of compound [^131I]11 in C57BL/6J mice bearing subcutaneous B16F0 melanoma cells, we injected twice 18.5 MBq [^131I]11 into group of 10 mice. […] The body weight of mice in all groups was stable (data not shown). The weight of tumours at 19 days were 2.29±1.03 g and 0.72±0.28 g respectively for controls and treated.

melting point: 131 to 133 °C (dec.)
SMILES: CCN(CCNC(=O)c1ccc2cncc(I)c2n1)CCOc1cccnc1F.Cl.Cl

melting point: 146 to 148 °C
SMILES: CCN(CCNC(=O)c1ccnc(F)c1)CCNC(=O)c1cnc2cc(I)ccc2n1 [Compound 39, N-[2-[N-ethyl-N-[2-[[(2-fluoropyridin-4-yl)carbonyl]amino]ethyl]amino]ethyl]-6-iodoquinoxaline-2-carboxamide]

melting point: 49 to 51 °C and 50 °C
SMILES: CCN(CCNC(=O)c1cnc2cc(I)ccc2n1)CCNc1cccc(Br)n1 [Compound 63, N-[2-[N-[2-[(6-bromopyridin-2-yl)amino]ethyl]-N-(ethyl)amino]ethyl]-6-iodoquinoxaline-2-carboxamide]

melting point: 147 to 149 °C
SMILES: CCN(CC)Cc1ccnc(F)c1CNC(=O)c1cnc2cc(I)ccc2n1 [Compound 91, N-[[4-(N,N-diethylaminomethyl)-2-fluoropyridin-3-yl]methyl]-6-iodoquinoxaline-2-carboxamide]

melting point: 88 to 90 °C and 89 °C
SMILES: CCN(CC)CCNC(=O)c1cnc2ccc(I)cc2c1F [Compound 96, N-[2-(diethylamino)ethyl]-4-fluoro-6-iodoquinoline-3-carboxamide]

melting point: 80 °C and 79 to 81 °C
SMILES: CCN(CC)CCNC(=O)c1cc(I)cc2c(F)ccnc12 [Compound 102, N-[2-(diethylamino)ethyl]-4-fluoro-6-iodoquinoline-8-carboxamide]

melting point: 59 °C and 58 to 60 °C
SMILES: CCN(CC)CCNC(=O)c1cc(F)c2cc(I)ccc2n1 [Compound 106, N-[2-(diethylamino)ethyl]-4-fluoro-6-iodoquinoline-2-carboxamide]

SMILES: CCN(CCNC(=O)c1cnc2cc(I)ccc2n1)CCOc1cccnc1[18F] [[^18F]10, [^18F]N-[2-[N-ethyl-N-[2-(2-fluoropyridin-3-yloxy)ethyl]amino]ethyl]-6-iodoquinoxaline-2-carboxamide]
Biodistribution in selected organs (% ID/CC), tumour targeting [1]: specifically target melanoma tumours in vivo | Uptake (% injected dose per volume tumour graft) in B16F0 relative to B16F10 tumour grafts ([2]; 2 and 4 hours post injection, same animal, FIGS. 5 and 6): more than two-to-three times higher | Uptake in B16F0 with respect to B16F10 ([2]; dynamic PET, FIG. 7, Set 2): two-to-three times higher | Contrast between melanoma grafts and surrounding tissue on PET images ([2]; two to two-and-a-half hours and six to six-and-a-half hours post injection): evident contrast

SMILES: CCN(CC)CCNC(=O)c1cnc2cc([125I])ccc2n1 [[^125I]ICF01012, reference compound]
Radioactive concentration in tumour (B16F0 melanoma tumour [3]; 1 H): 17 ± 11.1 % ID/g | Radioactive concentration in tumour (B16F0 melanoma tumour [3]; 3 H): 27.7 ± 7.0 % ID/g | Radioactive concentration in tumour (B16F0 melanoma tumour [3]; 6 H): 36.4 ± 7.6 % ID/g | Radioactive concentration in tumour (B16F0 melanoma tumour [3]; 24 H): 21.7 ± 10.8 % ID/g | Radioactive concentration in tumour (B16F0 melanoma tumour [3]; 72 H): 12.5 ± 1.6 % ID/g | Radioactive concentration in tumour (tumoural uptake) (B16 F0 murine melanoma; 1 H post injection): 21.8 ± 6.6 % ID/g | Radioactive concentration in tumour (tumoural uptake) (B16 F0 murine melanoma; 3 H post injection): 26.2 ± 6.6 % ID/g and 26.3 ± 6.6 % ID/g | Radioactive concentration in tumour (tumoural uptake) (B16 F0 murine melanoma; 6 H post injection): 29.6 ± 8.4 % ID/g | Radioactive concentration in tumour (tumoural uptake) (B16 F0 murine melanoma; 24 H post injection): 28.0 ± 8.1 % ID/g and 28.0 ± 8.2 % ID/g | Radioactive concentration in tumour (tumoural uptake) (B16 F0 murine melanoma; 72 H post injection): 12.3 ± 3.7 % ID/g | Radioactive concentration in tumour (tumoural uptake) (B16 F0 murine melanoma; 120 H post injection): 7.3 ± 3.6 % ID/g | Radioactive concentration in tumour (tumoural uptake) (B16 F0 murine melanoma; 168 H post injection): 3.4 ± 0.3 % ID/g | Radioactive concentration in tumour (tumoural uptake) (B16 F0 murine melanoma; 240 H post injection): 1.9 ± 0.4 % ID/g | Radioactive concentration in tumour (B16F0 melanoma tumour [4]; 1 H): 14.9 ± 5.7 % ID/g | Radioactive concentration in tumour (B16F0 melanoma tumour [4]; 3 H): 28.1 ± 8.9 % ID/g | Radioactive concentration in tumour (B16F0 melanoma tumour [4]; 6 H): 29.9 ± 2.8 % ID/g | Radioactive concentration in tumour (B16F0 melanoma tumour [4]; 24 H): 29.7 ± 3.1 % ID/g | Radioactive concentration in tumour (B16F0 melanoma tumour [4]; 72 H): 11.4 ± 2.6 % ID/g

SMILES: CCN(CCNC(=O)c1cnc2cc([131I])ccc2n1)CCOc1cccnc1F [[^131I]11, [^131I]N-[2-[N-ethyl-N-[2-(2-fluoropyridin-3-yloxy)ethyl]amino]ethyl]-6-iodoquinoxaline-2-carboxamide dihydrochloride salt]
Weight of tumours at 19 days ([5]; 2×18.5 MBq i.v. at days 6 and 10, controls 2.29±1.03 g, p=0.01): 0.72 ± 0.28 g | Tumour doubling time ([5]; 2×18.5 MBq i.v. at days 6 and 10 after tumour implantation, untreated 2.82±0.30 days): 3.83 ± 0.34 days | Body weight of mice ([5]; all groups, data not shown): stable | Ratio T/C of tumour weight at 19 days ([5]; treated vs controls): 0.31 | Effect on B16F0 tumoural growth ([5]; tumour volume, p<0.001 vs untreated): significantly slowed the B16F0 tumoural growth
